Laboratory results published in US20260248767A1, “METHODS FOR INDUCING FERROPTOSIS IN CANCER” (Board of Regents, The University of Texas System, priority 2023, published 2026).
“Also recorded” adds a separate entry of the source.

Columns and labels:
[1] = tested on: HT-1080 cells; experiment: Cell death assay (PI flow cytometry), HT-1080 cells incl. knockout lines; details: for cell death in combination with RSL3: combined with RSL3, compared to RSL3 alone; for cell death in combination with FIN56: combined with ferroptosis inducer FIN56; for cell death in combination with ML-162: combined with ferroptosis inducer ML-162; for cell death over various concentrations of RSL3: combined with various concentrations of RSL3; for cell death in SHMT2 knockout cells: ferroptosis inducer in SHMT2 knockout cells; for rescue of RSL3 plus sulfite induced cell death or decrease in cell viability: cell death inhibitors added to RSL3 plus sulfite; for cell death in MTHFD2 knockout cells: ferroptosis inducer in MTHFD2 knockout HT-1080 cells; for cell death in combination with JKE-1674: combined with ferroptosis inducer JKE-1674 (JKE)
Protocol: Initially, the effect of sulfite on ferroptosis was studied. […] Each group was treated with vehicle alone or with sulfite.
The knockout cells were identified by immunoblotting.
Briefly, cells were seeded in 12-well plates and incubated overnight. After treatment, cells were trypsinized and collected. After washing with cold phosphate-buffered saline (PBS), the cells were stained with 2 μg/mL propidium iodide (PI) in cold PBS. […] All experiments were performed in triplicates.

[2] = tested on: HT-1080 cells; experiment: Lipid peroxidation measurement (C11-BODIPY 581/591, flow cytometry); assay type: cell-based, human; details: for relative lipid peroxidation level in combination with RSL3: combined with RSL3, compared to RSL3 alone
Protocol: Cells were seeded on 12-well plates and incubated overnight. After treating with compounds for indicated time, cells were incubated in media containing 5 μM C11-BODIPY 581/591 (Invitrogen) for 30 min at 37° C. Then cells were trypsinized and collected. […] All experiments were performed in triplicates.

[3] = tested on: HT-1080 cells; experiment: Relative mitochondrial lipid peroxidation level; assay type: cell-based, human; details: for relative mitochondrial lipid peroxidation level in combination with RSL3: combined with RSL3, compared to RSL3 alone
[4] = tested on: HT-1080, 786-O, U87, T98G, RCC4, H1299, A549, Hela and Hs578T; experiment: Cell death assay (PI flow cytometry), panel of cancer cell lines; assay type: cell-based, human; details: for enhancement of ferroptosis induced by RSL3: panel of cell lines tested
Protocol: All cell lines used in this study were free of mycoplasma contamination (per testing done by the vendor). All the cells were cultured in a 37° C. incubator in a 5% CO2 atmosphere. H1299 cells were cultured in RPMI-1640 medium supplemented with 10% fetal bovine serum and 10,000 U/mL penicillin-streptomycin. HT-1080, 786-O, U87, T98G, RCC4, A549, Hela and Hs578T cells were cultured in Dulbecco modified Eagle medium (DMEM) supplemented with 10% fetal bovine serum and 10,000 U/mL of penicillin-streptomycin.
After treatment, cells were trypsinized and collected. […] All experiments were performed in triplicates.

[5] = tested on: HT-1080-derived xenografts; experiment: HT-1080-derived xenograft in nude mice; assay type: in vivo; details: for growth of HT-1080-derived xenografts (tumor volume): nude mice
Text: To assess the in vivo impact of the combination of SHMT inhibition and GPX4 inhibition, the SHMT inhibitor sertraline was utilized, an FDA-approved drug, and the GPX4 inhibitor JKE-1674 for both in vitro and in vivo cell treatments. The data reveal that both SHIN2 and sertraline sensitize cancer cells to JKE-1674-induced ferroptosis (FIG. 11A-11B). […] Additionally, liproxstain-1 reversed the 4-HNE staining score back to levels similar to the vehicle control (FIG. 11F-I).

[6] = tested on: LKR-13 tumor; experiment: LKR-13 tumor growth in 129/Sv mouse model; assay type: in vivo
Text: The assessment of ferroptosis function on the growth of either cell-derived or patient-derived xenografts is typically conducted in immunodeficient mice, such as nude mice or NSG mice. However, for applications in clinical settings, it becomes important to evaluate ferroptosis function in immunocompetent mice. To gain a more comprehensive understanding of the role of SHMT2 inhibition in combination with ferroptosis in cancer treatment, the investigations were extended to LKR13, a mouse cell line, both in vitro and in vivo. Initially, it was confirmed that sertraline promotes JKE-1674-induced ferroptosis in vitro (FIG. 11J-11K). Subsequently, the effects of sertraline, JKE-1674, and their combination were examined on a LKR-13 tumor growth in a 129/Sv mouse model.

[7] = tested on: HT-1080 cells; experiment: Cell viability assay (CCK-8); assay type: cell-based, human
Protocol: Cell viability was measured using a Cell Counting Kit-8 (CCK-8, Dojindo) as previously described (Koppula, P., et al. J Biol Chem 292, 14240-14249, doi: 10.1074/jbc.M117.798405 (2017); Liu, X. et al. Nat Cell Biol 18, 431-442, doi: 10.1038/ncb3328 (2016)). In brief, cells were seeded onto 96-well plates at a density of 1×10^4 per well. The next day, cells were treated with indicated compound for 16-20 h. Subsequently, cells were changed to new 100 μl medium containing 10 μl CCK-8 reagent for 1 h at 37° C., 5% CO2 in incubator. The absorbance at 450 nm was determined using a FLUOstar Omega microplate reader (BMG Labtech).

[8] = tested on: NADP+/NADPH; experiment: NADP+ and NADPH measurement; assay type: cell-based; details: treated vs untreated cells
[9] = tested on: LKR13, a mouse cell line; experiment: Cell death of LKR-13 cells in vitro; assay type: cell-based; details: 24 hrs
Protocol: Cell death was measured and analyzed using flow cytometry as described previously (Zhang, Y., et al. Cell Cycle 18, 773-783, doi: 10.1080/15384101.2019.1597506 (2019); Koppula, P. et al. Nature communications 13, 2206, doi: 10.1038/s41467-022-29905-1 (2022)). Briefly, cells were seeded in 12-well plates and incubated overnight. After treatment, cells were trypsinized and collected. After washing with cold phosphate-buffered saline (PBS), the cells were stained with 2 μg/mL propidium iodide (PI) in cold PBS. The fraction of dead cells (PI-positive cells) was measured using a Attune Flow Cytometer (ThermoFisher) and analyzed by FlowJo 10 software (Lin, A. et al. Oncogene 33, 3183-3194, doi: 10.1038/one.2013.273 (2014); Liu, X. & Gan, B. et al. Cell Cycle 15, 3471-3481, doi: 10.1080/15384101.2016.1249545 (2016)). All experiments were performed in triplicates.

[10] = RSL3 treated SUOX knockout cells
[11] = HT-1080 tumors, immunochemistry

SMILES: NC(=O)c1ccc(N)nc1 [6-AN, 6-Aminonicotinamide]
- cell death in combination with RSL3 [1]: enhanced the cell death
- cell death induced by the agent on its own ([1]; without RSL3): did not induce cell death on its own

SMILES: Nc1nc2ccn(CCCCc3ccc(C(=O)N[C@@H](CCC(=O)O)C(=O)O)c(F)c3)c2c(=O)[nH]1 [AGF347]
- relative lipid peroxidation level in combination with RSL3 [2]: increased lipid peroxidation levels; also recorded: increase lipid peroxidation
- relative mitochondrial lipid peroxidation level in combination with RSL3 [3]: increased relative mitochondrial lipid peroxidation level; also recorded: increase mitochondrial lipid peroxidation
- cell death in combination with RSL3 [1]: increase cell death
- cell death in combination with FIN56 [1]: also observed; also recorded: increase cell death
- cell death in combination with ML-162 [1]: also observed; also recorded: increase cell death
- cell death over various concentrations of RSL3 [1]: enhance cell death

SMILES: O=S(=O)(NC1CCCCC1)c1ccc2c(c1)C(=NO)c1cc(S(=O)(=O)NC3CCCCC3)ccc1-2 [FIN56]
- cell death in SHMT2 knockout cells [1]: induced cell death and or decrease viability

SMILES: CCOC(=O)c1ccc(NC2CCCCC2)c(N)c1 [Fer-1, Ferrostatin-1]
- rescue of ferroptosis induced by the combination of RSL3 and sulfite ([4]; Fer-1 5 μm): could be rescued
- rescue of the impact of SUOX knockout on RSL3 cell death ([1]; Fer-1 and RSL3, SUOX knockout HT-1080 cells): rescued
- cell death of RSL3 and 6-AN combination when combined with Ferr-1 ([1]; RSL3 + 6-AN + Ferr-1): did not induce cell death
- SHMT2 knockout increase of RSL3 mediated cell death when combined with Fer-1 ([1]; RSL3 + Fer-1, SHMT2 knockout cells): not observed
- rescue of RSL3 plus sulfite induced cell death or decrease in cell viability [1]: rescued

SMILES: O=C(/C(C[N+](=O)[O-])=N/O)N1CCN(C(c2ccc(Cl)cc2)c2ccc(Cl)cc2)CC1 [JKE-1674]
- growth of HT-1080-derived xenografts (tumor volume) [5]: no discernible effect
- LKR13 tumor graft growth [6]: did not impact
- cell death in MTHFD2 knockout cells [1]: significantly increase
- cell death in SHMT2 knockout cells [1]: induced cell death and or decrease viability

SMILES: COc1ccc(N(C(=O)CCl)C(C(=O)NCCc2ccccc2)c2cccs2)cc1Cl (stereo not drawn) [ML-162]
- cell death in MTHFD2 knockout cells [1]: significantly increase
- cell death in SHMT2 knockout cells [1]: induced cell death and or decrease viability

SMILES: COC(=O)c1ccc([C@H]2c3[nH]c4ccccc4c3C[C@H](C(=O)OC)N2C(=O)CCl)cc1 [RSL3]
- cell viability in SHMT2 knockout cells ([7]; varying concentrations of RSL3, SHMT2 knockout): reduced
- relative lipid peroxidation level % in SUOX knockout cells [2, 10]: mirrored
- lipid peroxidation level in SHMT2 knock out cells ([2]; upon RSL3 treatment): increased lipid peroxidation level
- relative mitochondrial lipid peroxidation level % in SUOX knockout cells [3, 10]: mirrored
- mitochondrial lipid peroxidation level in SHMT2 knock out cells ([3]; upon RSL3 treatment): increased mitochondrial lipid peroxidation level
- cell death in SUOX knockout cells vs sg control cells ([1]; SUOX knockout HT-1080 cells): Greater cell death
- cell death in MTHFD2 knockout cells [1]: significantly increase
- cell death in SHMT2 knockout cells [1]: increased

SMILES: N[C@@H](CSS(=O)(=O)O)C(=O)O [S-sulfocysteine]
- cell viability when combined with different concentrations of RSL3 ([7]; combined with RSL3, range of concentrations): sensitized
- relative lipid peroxidation level in combination with FIN56 ([2]; combined with FIN56): increased
- relative lipid peroxidation level in combination with RSL3 [2]: increased
- cell death in combination with RSL3 [1]: sensitized
- cell death in combination with FIN56 [1]: sensitized
- cell death in combination with JKE-1674 [1]: sensitized
- cell death in combination with ML-162 [1]: sensitized
- cell death in combination with ML-210 ([1]; combined with ferroptosis inducer ML-210): sensitized

SMILES: Cc1n[nH]c2c1[C@](c1cc(CO)cc(-c3ccccc3)c1)(C(C)C)C(C#N)=C(N)O2 [SHIN1]
- enhancement of ferroptosis induced by RSL3 [4]: enhance ferroptosis
- relative lipid peroxidation level in combination with RSL3 [2]: increased lipid peroxidation levels; also recorded: increase lipid peroxidation
- relative mitochondrial lipid peroxidation level in combination with RSL3 [3]: increased relative mitochondrial lipid peroxidation level; also recorded: increase mitochondrial lipid peroxidation
- NADP+/NADPH ratio [8]: higher
- cell death in combination with RSL3 [1]: increase cell death
- cell death in combination with FIN56 [1]: also observed; also recorded: increase cell death
- cell death in combination with ML-162 [1]: also observed; also recorded: increase cell death
- cell death over various concentrations of RSL3 [1]: enhance cell death

SMILES: Cc1n[nH]c2c1[C@](c1cc(C#CCCCO)cc(CO)c1)(C(C)C)C(C#N)=C(N)O2 [SHIN2]
- enhancement of ferroptosis induced by RSL3 [4]: enhance ferroptosis
- relative lipid peroxidation level in combination with RSL3 [2]: increased lipid peroxidation levels; also recorded: increase lipid peroxidation
- relative mitochondrial lipid peroxidation level in combination with RSL3 [3]: increased relative mitochondrial lipid peroxidation level; also recorded: increase mitochondrial lipid peroxidation
- NADP+/NADPH ratio [8]: higher
- cell death in combination with RSL3 [1]: increase cell death
- cell death in combination with FIN56 [1]: also observed; also recorded: increase cell death
- cell death in combination with JKE-1674 [1]: enhance cell death; also recorded: sensitize
- cell death in combination with ML-162 [1]: also observed; also recorded: increase cell death
- cell death over various concentrations of RSL3 [1]: enhance cell death

SMILES: O=S(=O)([O-])[O-].[Na+].[Na+] [Sulfate, Sodium sulfate]
- cell death in combination with RSL3 [1]: did not synergistically increase

SMILES: Clc1cccc(CN=C2Nc3ccccc3NC23CCNCC3)c1 [liproxstain-1, Liproxstatin-1]
- 4-HNE staining score when added to JKE-1674+sertraline ([5]; HT-1080 tumors, JKE-1674+sertraline+Lip-1): reversed
- rescue of RSL3 plus sulfite induced cell death or decrease in cell viability [1]: rescued

SMILES: CN[C@H]1CC[C@@H](c2ccc(Cl)c(Cl)c2)c2ccccc21 [sertraline]
- relative lipid peroxidation level in combination with RSL3 [2]: significantly increase
- relative mitochondrial lipid peroxidation level in combination with RSL3 [3]: significantly increase
- staining for Ki-67 in tumors [5, 11]: did not alter staining
- staining for cleaved caspase-3 in tumors [5, 11]: did not alter staining
- growth of HT-1080-derived xenografts (tumor volume) [5]: no discernible effect
- LKR13 tumor graft growth [6]: did not impact
- JKE-1674-induced ferroptosis in vitro [9]: promotes
- cell death in combination with RSL3 [1]: significantly increase
- cell death in combination with JKE-1674 [1]: enhance cell death; also recorded: sensitize
- cell death in combination with ML-162 [1]: significantly enhance
- cell death over various concentrations of RSL3 [1]: enhance cell death

SMILES: O=S(O)(O)=S [thiosulfate, Sodium Thiosulfate]
- cell death as observed visually ([1]; 0.5 mM, cancer cells, presence or absence of RSL3): to a very small extent
- cell death in combination with RSL3 [1]: significantly more than the cell death observed with vehicle control upon treatment with RSL3, but less than the cell death observed with sulfite
